“And” between values parts separate entries of the source, which are not always exact repeats. Equal values may be shown once. Toxic doses and inconclusive results are not listed.
System: P388 leukemia ip, CD2F1 mice, survival T/C
Test: NCI In Vivo Anticancer Drug Screen. Data for tumor model P388 Leukemia (intraperitoneal) in CD2F1 (CDF1) mice
Settings: endpoint: median survival time, higher = longer survival
Summary of the method: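 Mice carrying the transplanted tumor received test compound or vehicle. Survival was recorded in each group, and the value is the treated-group measurement divided by that of the vehicle-treated control group.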

[1] = dose: 50.0 mg/kg/injection, schedule: Q01DX009 (ip), vehicle: Klucel (hydroxypropylcellulose) (HPC)
[2] = dose: 50.0 mg/kg/injection, schedule: Q01DX005 (ip), vehicle: saline
[3] = dose: 100.0 mg/kg/injection, schedule: Q01DX005 (ip), vehicle: saline
[4] = dose: 200.0 mg/kg/injection, schedule: Q01DX005 (ip), vehicle: saline
[5] = dose: 100.0 mg/kg/injection, schedule: Q01DX009 (ip), vehicle: saline
[6] = dose: 200.0 mg/kg/injection, schedule: Q01DX009 (ip), vehicle: saline

`Cc1c2cnccc2c(C)c2c1[nH]c1ccccc12` was tested, and the T/C (dose: 25.0 mg/kg/injection, schedule: Q04DX002 (ip), vehicle: Klucel (hydroxypropylcellulose) (HPC)) was 98 % of control, the T/C (dose: 50.0 mg/kg/injection, schedule: Q04DX002 (ip), vehicle: Klucel (hydroxypropylcellulose) (HPC)) was 103 % of control and the T/C (dose: 100.0 mg/kg/injection, schedule: Q04DX002 (ip), vehicle: Klucel (hydroxypropylcellulose) (HPC)) was 105 % of control. The T/C (dose: 180.0 mg/kg/injection, schedule: Q04DX002 (ip), vehicle: Klucel (hydroxypropylcellulose) (HPC)) was 94 % of control, the T/C (dose: 200.0 mg/kg/injection, schedule: Q04DX002 (ip), vehicle: Klucel (hydroxypropylcellulose) (HPC)) was 111 % of control and the T/C (dose: 360.0 mg/kg/injection, schedule: Q04DX002 (ip), vehicle: Klucel (hydroxypropylcellulose) (HPC)) was 108 % of control.
For `COc1cc(C[C@@H]([C@@H](CO)Cc2ccc3c(c2)OCO3)[C@H](O)CO)cc(OC)c1OC`, the T/C (dose: 6.25 mg/kg/injection, schedule: Q04DX002 (ip), vehicle: acetone) was 103 % of control, the T/C (dose: 12.5 mg/kg/injection, schedule: Q04DX002 (ip), vehicle: acetone) was 100 % of control and the T/C (dose: 25.0 mg/kg/injection, schedule: Q04DX002 (ip), vehicle: acetone) was 100 % of control.
For `COc1ccc(NS(=O)(=O)c2ccc(C)cc2)c([N+](=O)[O-])c1`, the T/C [1] was 116 % of control, the T/C (dose: 100.0 mg/kg/injection, schedule: Q01DX009 (ip), vehicle: Klucel (hydroxypropylcellulose) (HPC)) was 115 % of control and the T/C (dose: 200.0 mg/kg/injection, schedule: Q01DX009 (ip), vehicle: Klucel (hydroxypropylcellulose) (HPC)) was 115 % of control.
`COC(=O)C(=C\c1nc2ccc([N+](=O)[O-])cc2s1)/C(C(=O)OC)=C1\CCCN1C` was tested, and the T/C [2] was 100 % of control, the T/C [3] was 97 % of control and the T/C [4] was 97 % of control.
`CCN(CC)CCNC1=C(Cl)C(=O)c2ccccc2C1=O` was tested, and the T/C (dose: 1.56 mg/kg/injection, schedule: Q01DX009 (ip), vehicle: saline) was 95 % of control, the T/C (dose: 3.13 mg/kg/injection, schedule: Q01DX009 (ip), vehicle: saline) was 96 % of control and the T/C (dose: 6.25 mg/kg/injection, schedule: Q01DX009 (ip), vehicle: saline) was 96 % of control. The T/C (dose: 12.5 mg/kg/injection, schedule: Q01DX009 (ip), vehicle: distilled water + Tween-80) was 100 % of control and the T/C (dose: 12.5 mg/kg/injection, schedule: Q01DX009 (ip), vehicle: saline) was 101 % of control.
For `O=C1CSc2ncccc2N1c1ccc([N+](=O)[O-])cn1`, the T/C (dose: 50.0 mg/kg/injection, schedule: Q01DX009 (ip), vehicle: suspension in saline) was 105 % of control, the T/C [5] was 100 % of control and the T/C (dose: 100.0 mg/kg/injection, schedule: Q01DX009 (ip), vehicle: suspension in saline) was 101 % of control. The T/C [6] was 96 % of control and the T/C (dose: 200.0 mg/kg/injection, schedule: Q01DX009 (ip), vehicle: suspension in saline) was 101 % of control.
`CN(C)C(CCC(=O)O)C(=O)O` (centres undefined) was tested, and the T/C [2] was 102 % of control, the T/C [3] was 97 % of control and the T/C [4] was 98 % of control.
With `CCOC(=O)C(Cc1ccc(N(CCCl)CCCl)cc1)NC(=O)C(N)CCC(=O)O` (centres undefined) the T/C (dose: 5.0 mg/kg/injection, schedule: Q04DX003 (ip), vehicle: water) was 166 % of control, the T/C (dose: 6.25 mg/kg/injection, schedule: Q01DX009 (ip), vehicle: Klucel (hydroxypropylcellulose) (HPC)) was 169 % of control and the T/C (dose: 10.0 mg/kg/injection, schedule: Q04DX003 (ip), vehicle: water) was 161 % of control and 196 % of control. For the same molecule, the T/C (dose: 12.5 mg/kg/injection, schedule: Q01DX009 (ip), vehicle: Klucel (hydroxypropylcellulose) (HPC)) was 202 % of control and 247 % of control, the T/C (dose: 20.0 mg/kg/injection, schedule: Q04DX003 (ip), vehicle: water) was 233 % of control and 321 % of control and the T/C (dose: 25.0 mg/kg/injection, schedule: Q01DX009 (ip), vehicle: Klucel (hydroxypropylcellulose) (HPC)) was 196 % of control. For the same molecule, the T/C (dose: 40.0 mg/kg/injection, schedule: Q04DX003 (ip), vehicle: water) was 122 % of control and 348 % of control and the T/C [1] was 92 % of control.
For `Cc1cc(O)c(-c2c(-c3ccccc3C(=O)O)oc3cc(C)c(C)cc23)cc1C`, the T/C (dose: 50.0 mg/kg/injection, schedule: Q01DX009 (ip), vehicle: saline) was 89 % of control, the T/C [5] was 89 % of control and the T/C [6] was 90 % of control.
